In brackets after ≈: the same amount, converted by molar mass. Where two headings read alike, the source gives them in different places.
System: Clostridium perfringens
Test: microbe, parasite or virus in culture
Type: cell-based
[1] = Clostridium perfringens, read-out: MIC value against Clostridium perfringens, strain A3-1 (A-type)
[2] = Clostridium perfringens, read-out: MIC value against Clostridium perfringens, strain A3-2 (A-type)
[3] = Clostridium perfringens, read-out: MIC value against Clostridium perfringens, strain A57-1 (A-type)
[4] = Clostridium perfringens, read-out: MIC value against Clostridium perfringens, strain B4 (B-type)
[5] = Clostridium perfringens, read-out: MIC value against Clostridium perfringens, strain B5 (B-type)
[6] = Clostridium perfringens, read-out: MIC value against Clostridium perfringens, strain C3 (C-type)
[7] = Clostridium perfringens, read-out: MIC value against Clostridium perfringens, strain C8 (C-type)
[8] = Clostridium perfringens, read-out: MIC value against Clostridium perfringens, strain C59-1 (C-type)
[9] = Clostridium perfringens, read-out: MIC value against Clostridium perfringens, strain D14B (D-type)
[10] = Clostridium perfringens, read-out: MIC value against Clostridium perfringens, strain F5-2 (F-type)
[11] = Clostridium perfringens, read-out: MIC value against Clostridium perfringens, strain F6-1 (F-type)
[12] = Clostridium perfringens, read-out: MIC value against Clostridium perfringens, strain F6-2 (F-type)
[13] = Clostridium perfringens, read-out: MIC value against Clostridium perfringens, strain F6-2-1 (F-type)
[14] = Clostridium perfringens, read-out: MIC value against Clostridium perfringens, strain F6-2-2 (F-type)
[15] = Clostridium perfringens, read-out: MIC value against Clostridium perfringens, strain F7-1 (F-type)
[16] = Clostridium perfringens, read-out: MIC value against Clostridium perfringens, strain F8-1 (F-type)
[17] = Clostridium perfringens, read-out: MIC value against Clostridium perfringens, strain H12-1 (H-type)
[18] = Clostridium perfringens, read-out: MIC value against Clostridium perfringens, strain H12-2 (H-type)
[19] = Clostridium perfringens, read-out: MIC value against Clostridium perfringens, strain H13-1 (H-type)
[20] = Clostridium perfringens, read-out: MIC value against Clostridium perfringens, strain H14-1 (H-type)
[21] = Clostridium perfringens, read-out: MIC value against Clostridium perfringens, strain H14-2 (H-type)
[22] = Clostridium perfringens, read-out: MIC value against Clostridium perfringens, strain H14-4 (H-type)
[23] = Clostridium perfringens, read-out: MIC value against Clostridium perfringens, strain H15-1 (H-type)
[24] = Clostridium perfringens, read-out: MIC value against Clostridium perfringens, strain H15-2 (H-type)
[25] = Clostridium perfringens, read-out: MIC value against Clostridium perfringens, strain H15-3 (H-type)
[26] = Clostridium perfringens, read-out: MIC value against Clostridium perfringens, strain H16 (H-type)

## C=C[C@]1(C)C[C@@H](OC(=O)CSCCN(CC)CC)[C@]2(C)[C@H](C)CC[C@]3(CCC(=O)[C@H]32)[C@@H](C)[C@@H]1O [TIA, Tiamulin]
Clostridium perfringens
  MIC90: 8 µg/mL (≈ 16.2 µM)
Clostridium perfringens (n=26), unit as printed for tiamulin
  MIC50: 0.5 µg/mL (≈ 1.01 µM)
[1]
  MIC: 0.5 µg/mL (≈ 1.01 µM)
[2]
  MIC: 0.5 µg/mL (≈ 1.01 µM)
[3]
  MIC: 4 µg/mL (≈ 8.1 µM)
[4]
  MIC: 4 µg/mL (≈ 8.1 µM)
[5]
  MIC: 0.5 µg/mL (≈ 1.01 µM)
[6]
  MIC: 8 µg/mL (≈ 16.2 µM)
[7]
  MIC: 0.5 µg/mL (≈ 1.01 µM)
[8]
  MIC: ≤ 0.25 µg/mL
[9]
  MIC: 8 µg/mL (≈ 16.2 µM)
[10]
  MIC: 0.5 µg/mL (≈ 1.01 µM)
[11]
  MIC: 0.5 µg/mL (≈ 1.01 µM)
[12]
  MIC: 0.5 µg/mL (≈ 1.01 µM)
[13]
  MIC: 0.5 µg/mL (≈ 1.01 µM)
[14]
  MIC: 0.5 µg/mL (≈ 1.01 µM)
[15]
  MIC: 4 µg/mL (≈ 8.1 µM)
[16]
  MIC: 4 µg/mL (≈ 8.1 µM)
[17]
  MIC: 0.5 µg/mL (≈ 1.01 µM)
[18]
  MIC: ≤ 0.25 µg/mL
[19]
  MIC: 4 µg/mL (≈ 8.1 µM)
[20]
  MIC: 8 µg/mL (≈ 16.2 µM)
[21]
  MIC: 8 µg/mL (≈ 16.2 µM)
[22]
  MIC: 4 µg/mL (≈ 8.1 µM)
[23]
  MIC: ≤ 0.25 µg/mL
[24]
  MIC: 4 µg/mL (≈ 8.1 µM)
[25]
  MIC: 4 µg/mL (≈ 8.1 µM)
[26]
  MIC: 4 µg/mL (≈ 8.1 µM)

## CC[C@H]1OC(=O)C[C@@H](O)[C@H](C)[C@@H](O[C@@H]2O[C@H](C)[C@@H](O)[C@H](N(C)C)[C@H]2O)[C@@H](CCN2C[C@H](C)C[C@H](C)C2)C[C@@H](C)C(=O)/C=C/C(C)=C/[C@@H]1CO[C@@H]1O[C@H](C)[C@@H](O)[C@@H](OC)[C@H]1OC [TMS, Tilmicosin]
Clostridium perfringens
  MIC50: 128 µg/mL (≈ 147 µM)
  MIC90: > 128 µg/mL
[1]
  MIC: 4 µg/mL (≈ 4.6 µM)
[2]
  MIC: 2 µg/mL (≈ 2.3 µM)
[3]
  MIC: 4 µg/mL (≈ 4.6 µM)
[4]
  MIC: > 128 µg/mL
[5]
  MIC: > 128 µg/mL
[6]
  MIC: > 128 µg/mL
[7]
  MIC: > 128 µg/mL
[8]
  MIC: 2 µg/mL (≈ 2.3 µM)
[9]
  MIC: 128 µg/mL (≈ 147 µM)
[10]
  MIC: 128 µg/mL (≈ 147 µM)
[11]
  MIC: 128 µg/mL (≈ 147 µM)
[12]
  MIC: 128 µg/mL (≈ 147 µM)
[13]
  MIC: > 128 µg/mL
[14]
  MIC: 128 µg/mL (≈ 147 µM)
[15]
  MIC: 64 µg/mL (≈ 73.6 µM)
[16]
  MIC: 128 µg/mL (≈ 147 µM)
[17]
  MIC: 4 µg/mL (≈ 4.6 µM)
[18]
  MIC: 4 µg/mL (≈ 4.6 µM)
[19]
  MIC: 4 µg/mL (≈ 4.6 µM)
[20]
  MIC: 128 µg/mL (≈ 147 µM)
[21]
  MIC: 128 µg/mL (≈ 147 µM)
[22]
  MIC: 128 µg/mL (≈ 147 µM)
[23]
  MIC: 4 µg/mL (≈ 4.6 µM)
[24]
  MIC: 128 µg/mL (≈ 147 µM)
[25]
  MIC: 4 µg/mL (≈ 4.6 µM)
[26]
  MIC: 128 µg/mL (≈ 147 µM)

## Penicillin
Strain A3-1 (A-type)
  MIC value against Clostridium perfringens: 0.25 µg/mL
Strain A3-2 (A-type)
  MIC value against Clostridium perfringens: 0.5 µg/mL
Strain A57-1 (A-type)
  MIC value against Clostridium perfringens: 0.25 µg/mL
Strain B4 (B-type)
  MIC value against Clostridium perfringens: 0.5 µg/mL
Strain B5 (B-type)
  MIC value against Clostridium perfringens: 0.5 µg/mL
Strain C3 (C-type)
  MIC value against Clostridium perfringens: 2 µg/mL
Strain C8 (C-type)
  MIC value against Clostridium perfringens: 0.25 µg/mL
Strain C59-1 (C-type)
  MIC value against Clostridium perfringens: 0.125 µg/mL
Strain D14B (D-type)
  MIC value against Clostridium perfringens: 0.5 µg/mL
Strain F5-2 (F-type)
  MIC value against Clostridium perfringens: 0.125 µg/mL
Strain F6-1 (F-type)
  MIC value against Clostridium perfringens: 0.25 µg/mL
Strain F6-2 (F-type)
  MIC value against Clostridium perfringens: 0.125 µg/mL
Strain F6-2-1 (F-type)
  MIC value against Clostridium perfringens: 0.25 µg/mL
Strain F6-2-2 (F-type)
  MIC value against Clostridium perfringens: 0.25 µg/mL
Strain F7-1 (F-type)
  MIC value against Clostridium perfringens: 0.5 µg/mL
Strain F8-1 (F-type)
  MIC value against Clostridium perfringens: 0.25 µg/mL
Strain H12-1 (H-type)
  MIC value against Clostridium perfringens: 0.25 µg/mL
Strain H12-2 (H-type)
  MIC value against Clostridium perfringens: 0.125 µg/mL
Strain H13-1 (H-type)
  MIC value against Clostridium perfringens: 0.0625 µg/mL
Strain H14-1 (H-type)
  MIC value against Clostridium perfringens: 0.25 µg/mL
Strain H14-2 (H-type)
  MIC value against Clostridium perfringens: 1 µg/mL
Strain H14-4 (H-type)
  MIC value against Clostridium perfringens: 0.125 µg/mL
Strain H15-1 (H-type)
  MIC value against Clostridium perfringens: 0.25 µg/mL
Strain H15-2 (H-type)
  MIC value against Clostridium perfringens: 0.25 µg/mL
Strain H15-3 (H-type)
  MIC value against Clostridium perfringens: 0.25 µg/mL
Strain H16 (H-type)
  MIC value against Clostridium perfringens: 0.125 µg/mL

— patent US12435031B2, “Compound with broad-spectrum antibacterial activity and its antibacterial composition” (CHINA AGRICULTURAL UNIVERSITY, priority 2023, dated 2025)
